“Also recorded” adds a separate entry of the source.
Experiments:
[1] = system: LPS induced acute lung inflammation; assay: Example 2: LPS induced inflammation, H-AA versus D-AA, male and female mice; format: in vivo; conditions: for Interalveolar space / Interalveolar surface area: 6-week course, then single intranasal LPS; for inflammation in the lungs (in words): male and female mice, after LPS
Protocol: LPS administration was conducted as per Example 1 above except that four groups of mice were used. The first two groups (1 and 2) were control mice (male and female). The next two groups (3 and 4) of mice received a 6-week course of H-AA (male and female). Finally, the last two groups (5 and 6) of mice received a 6-week course of D6-AA (second group). Groups 3, 4, 5 and 6 then received a single intranasal administration of LPS to induce acute lung inflammation. The degree of the inflammatory response was determined per Example 1. Next, the height and distance of the interalveolar septa was determined to provide for the surface area of the inflammation.

[2] = system: LPS-induced acute lung injury; assay: Example 5: response to intranasal LPS in mice fed AA diets (ALI model); format: in vivo, BALB/c and C57BL/6 mice; conditions: for LPS-induced perivascular edema as measured by alveolar wall thickness: 6 weeks diet, versus H-AA
Protocol: Mouse diet was from Research Diets (New Brunswick, NJ) based on fat-free AIN-93G. Fat was added at 11.3% by weight total fat and 0.25% either normal H-AA or D-AA respectively (Table 5).
Male and Female BALB/c and C57BL/6 mice were provided with standard environmental conditions i.e., 22±1° C., 55±5% humidity and 12 h light/dark cycle with free food and water access. At the age of six weeks, animals were split into 8 groups (n=160 total, 20 of each gender) and were continuously fed ad libitum on the diet containing either H-AA or D-AA for 2, 4, 6 or 8 weeks at the daily rate of ca. 5 g of diet per mouse for the duration of the study. The other two groups of animals (n=40, 20 of each gender) received neither PUFA-enriched diets nor LPS served as controls. The body weight and food intake were measured once a week. After completing the appropriate diet course, half of the mice in each group (10 females and 10 males) (i) underwent the procedure of bronchoalveolar lavage (BAL) to accomplish cytological smears, (ii) were subjected to tissue harvesting and collection of colon contents (after humane euthanasia with lethal dose of sodium thiopental, 100 mg/kg intravenously). On the ninth week of this diet course, the other half of the group was administered 1 mg/kg of intranasal (IN) LPS from Escherichia coli O111:B4 (Sigma Aldrich) 24 hours prior to BAL and subsequent euthanasia. 40 D-AA fed animals (20 males, 20 females) were switched to the H-AA diet for washout experiments.
Cell differential counts were performed on smear slides from resuspended cell pellets of BAL, using commercially available May-Grünwald-Giemsa staining kits. All slides were evaluated in a light microscope (Optec BK5000) at ×200 magnification. These cell counts such as lymphocytes, neutrophils, plasmacytes and macrophages were obtained from 10 fields of each slide.
Lung, stomach and colon samples were fixed with 4% formaldehyde (freshly prepared from paraformaldehyde), paraffin embedded and cut into 2-4 μm sections. For routine histology, all fixed tissue sections were stained with hematoxylin-eosin (H&E). All slides were evaluated at 10 fields each using a Genetic Pro Bino light microscope (A) and photographed with a digital camera (Delta Optical). Stomach and colon tissue sections were analyzed for signs of active and chronic inflammation, formation of lymph follicles, and hyperplasia of epithelial cells. The severity of lung injury was scored according to lung pathological changes, including interalveolar and perivascular hemorrhages, peri-vascular and peribronchial infiltration, perivascular edema, thickness of alveolar wall, alveolar space value, and emphysematous transformations. Lung tissue samples were additionally stained with commercially available Martius Scarlet Blue (MSB) stain kit (Avantik, USA) for fibrin visualization. The presence of homogeneous fibrin masses of yellow, pink or red color in the lung blood vessels were interpreted as thrombotic masses.
We challenged mice fed AA-diets for 6 weeks using LPS treatment. […] Perivascular edema, signs of thrombosis, alveolar wall thickening, irregular distribution of air spaces, and focal areas of alveolar hemorrhage were also observed. We preferred intranasal administration to the more extreme intratracheal route that induces IL-1β which in turn amplifies inflammation making it difficult to distinguish between the early and late consequences of the LPS challenge. Indeed, 24 hours after intranasal administration of LPS at a dose of 1 mg/kg, there was no significant increase in the IL-1B content in BAL fluid or colon homogenates compared to animals not treated with LPS regardless of type or duration of the diets. Intranasal LPS 24 hours post administration increased neutrophils in BAL fluid in all treated groups regardless of gender or form of AA diets.

[3] = parameters: species or system mice; conditions: in vivo
Protocol: Male and Female BALB/c and C57BL/6 mice were provided with standard environmental conditions i.e., 22±1° C., 55±5% humidity and 12 h light/dark cycle with free food and water access. At the age of six weeks, animals were split into 8 groups (n=160 total, 20 of each gender) and were continuously fed ad libitum on the diet containing either H-AA or D-AA for 2, 4, 6 or 8 weeks at the daily rate of ca. 5 g of diet per mouse for the duration of the study. The other two groups of animals (n=40, 20 of each gender) received neither PUFA-enriched diets nor LPS served as controls. The body weight and food intake were measured once a week. […]
The relative ratio of H-AA to D-AA was determined by gas chromatography (GC) coupled to chemical ionization mass spectrometry. […]
As the first step to test this hypothesis, we studied the metabolic effect of such a dietary supplementation. We determined the actual content of D-AA and then performed a washout experiment after a long period of supplementation by switching from D-AA to H-AA diet by MS analysis of several mouse tissues in the AA-diet fed mice. […]

[4] = 6 or 8 weeks diet, compared to H-AA

Compound: [2H]C([2H])(/C=C\CCCCC)/C=C\C([2H])([2H])/C=C\C([2H])([2H])/C=C\CCCC(=O)O [D-AA, 7,7,10,10,13,13-D6-arachidonic acid]
- Interalveolar space ([1]; female mice): ~3.5 μm
- Interalveolar surface area ([1]; female mice): ~90 μm^2
- inflammation in the lungs (in words) [1]: statistically significant reduction in inflammation
- inflammation in the lungs (in words) ([1]; listed as D-6 AA): less inflammation in the lungs
- Interalveolar space ([1]; male mice): ~5.0 μm
- Interalveolar surface area ([1]; male mice): ~190 μm^2
- LPS-induced interalveolar septa / wall thickening (in words) ([2]; 6-week diet, then single intranasal LPS): greater protective action
- alveolar spaces and thickness of interalveolar walls [2, 4]: improved
- endotoxin-induced peribronchial infiltration [2, 4]: significantly decreased
- LPS-induced lung tissue damage, inflammation and emphysema (in words) ([2]; dietary consumption prior to LPS exposure): substantially mitigated; also recorded: substantially reduced
- LPS-induced perivascular edema as measured by alveolar wall thickness ([2]; female mice): almost negligible
- LPS-induced perivascular edema as measured by alveolar wall thickness ([2]; male mice): significantly milder effect
- inflammatory cell types in BAL, H-AA versus D-AA ([2]; regardless of gender and LPS treatment): No statistically significant differences
- incorporation of the deuterated form ([3]; both, BALB/c and C57BL/6, mouse, 12 weeks): more than 60%
- washout with H-AA feeding ([3]; mouse): more rapid than brain

— patent publication US12576059B2, “Methods and compositions for treatment of inflammatory disease” (priority 2021, dated 2026)
